Data on twelve molecules can be found in ChEMBL document CHEMBL1201862, “PubChem BioAssay data set” (2004).

Molecules are shown by their SMILES.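 Assay format: 96-well plates, 48-hour exposure. GI50 is the concentration that inhibits growth by half.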 Calls of active or inactive are those of the source. Cut-off read from the data, not from the text of the source: active = GI50 up to about 1.1 µM and inactive = higher.

Some test systems named below: 786-0; CCRF-CEM; EKVX; HCT-15; HL-60; HOP-62; HOP-92; K562; LOX IMVI; NCI-H460; RXF 393; SK-MEL-28; SK-MEL-2; U-251; UACC-257; UO-31; MOLT-4; Hs-578T; PC-3.
Common to all, as to experiment: NCI tumour cell line growth inhibition, 48 h

`C[Si](C)(C)c1ccc(CC2(Cc3ccc([Si](C)(C)C)cc3)CCNC2)cc1`: the GI50 in the test with 786-0 was 1.77 µM (inactive); in the test on CCRF-CEM, 4.67 µM (inactive); in the test with EKVX it was 6.75 µM (inactive); in the test with HCT-15, 2.16 µM; in the test with HL-60, 7.18 µM (inactive); with HOP-62, 2.94 µM (inactive). The GI50 is 1.74 µM (inactive) in the test with HOP-92; 3.62 µM (inactive) in the test with K562; 1.8 µM (inactive) in the test on LOX IMVI; 2.04 µM (inactive) with NCI-H460; 1.71 µM (inactive) with RXF 393; 2.33 µM (inactive) with SK-MEL-28. Besides, the GI50 in the test on SK-MEL-2 is 1.76 µM (inactive); in the test on U-251 it was 1.66 µM (inactive); with UACC-257 it was 2.44 µM (inactive); in the test with UO-31, 2.48 µM (inactive).

Consider `CCCCCCCCCCCOC(=S)NC(C)C`, for which the GI50 in the test on 786-0 was 19.1 µM (inactive); with CCRF-CEM, 23.5 µM (inactive); in the test with EKVX it was 20.9 µM (inactive); with HCT-15 it was 17.5 µM; with HL-60 it was 15.6 µM (inactive); in the test on HOP-62 it was 20.1 µM (inactive). Also, the GI50 was 14.1 µM (inactive) in the test on HOP-92; 21.2 µM (inactive) with K562; 16.7 µM (inactive) with LOX IMVI; 16.7 µM (inactive) with MOLT-4; 21.3 µM (inactive) in the test with NCI-H460; 19.8 µM (inactive) with RXF 393. The GI50 in the test with SK-MEL-28 is 20.7 µM (inactive); in the test on SK-MEL-2, 19.2 µM (inactive); in the test with U-251, 15.8 µM (inactive); with UACC-257, 19.1 µM (inactive); in the test with UO-31, 15.8 µM (inactive).

For the molecule `CCCCCCCCCCCCCC(=S)N/C=C/OC`, the GI50 was 30.8 µM (inactive) in the test on 786-0; 21.4 µM (inactive) in the test on CCRF-CEM; 31 µM (inactive) with EKVX; 22.9 µM with HCT-15; 16.1 µM (inactive) in the test on HL-60; 48 µM (inactive) in the test on HOP-62. The GI50 in the test with HOP-92 is 25.8 µM (inactive); in the test with LOX IMVI it was 20.5 µM (inactive); in the test on NCI-H460 it was 29.3 µM (inactive); in the test on RXF 393, 26.9 µM (inactive); in the test on SK-MEL-28, 41.7 µM (inactive); in the test with SK-MEL-2, 32 µM (inactive). The GI50 with U-251 was 21.4 µM (inactive); in the test with UACC-257, 24.5 µM (inactive); with UO-31, 31 µM (inactive).

For `CC(=O)Oc1cc(OC(C)=O)c2c(C)cc(=O)oc2c1`, the GI50 in the test with 786-0 was > 100 µM (inactive); in the test with CCRF-CEM, > 100 µM (inactive); with EKVX it was > 100 µM (inactive); in the test with HCT-15, > 100 µM; in the test on HOP-62, > 100 µM (inactive); with Hs-578T, > 100 µM (inactive). Moreover, the GI50 in the test with K562, in the test on LOX IMVI, with MOLT-4, with PC-3, in the test with SK-MEL-28 and in the test with SK-MEL-2 was > 100 µM (inactive) in each case. The GI50 in the test on U-251 was > 100 µM (inactive); with UACC-257, > 100 µM (inactive); in the test on UO-31, 67.3 µM (inactive).

For `COc1ccc(C2Oc3ccc(O)cc3[C@@H]2C)cc1OC` (stereo partly drawn), the GI50 in the test on 786-0 is > 100 µM (inactive); in the test on CCRF-CEM, 17.5 µM (inactive); in the test with EKVX it was > 100 µM (inactive); with HCT-15 it was 52.6 µM; in the test with HL-60, 34.3 µM (inactive); in the test on HOP-62 it was > 100 µM (inactive). The GI50 was 23 µM (inactive) in the test on HOP-92; > 100 µM (inactive) in the test on K562; > 100 µM (inactive) in the test on LOX IMVI; 37.6 µM (inactive) with MOLT-4; > 100 µM (inactive) with NCI-H460; 58.5 µM (inactive) in the test on RXF 393. For the same molecule, the GI50 in the test on SK-MEL-28 was > 100 µM (inactive); in the test on SK-MEL-2, > 100 µM (inactive); with U-251 it was > 100 µM (inactive); in the test on UACC-257 it was > 100 µM (inactive); with UO-31 it was 63.1 µM (inactive).

Regarding `CN(CC(=O)O)S(=O)(=O)c1ccc(Cl)cc1`, the GI50 in the test with 786-0 was > 100 µM (inactive); in the test with CCRF-CEM, > 100 µM (inactive); in the test with EKVX it was > 100 µM (inactive); in the test on HCT-15, > 100 µM; in the test on HL-60 it was > 100 µM (inactive); in the test with HOP-92, > 100 µM (inactive). Further, the GI50 with K562, in the test with LOX IMVI, in the test with MOLT-4, in the test with NCI-H460, in the test with RXF 393 and in the test with SK-MEL-28 was > 100 µM (inactive) each time. In addition, the GI50 in the test on SK-MEL-2, in the test on U-251, in the test with UACC-257 and in the test with UO-31 was > 100 µM (inactive) in each case.

With `NC1N=Nc2ccccc21` (stereo not drawn), the GI50 in the test on 786-0 was > 100 µM (inactive); in the test on CCRF-CEM, > 100 µM (inactive); in the test with EKVX, > 100 µM (inactive); with HCT-15, > 100 µM; in the test on HL-60, > 100 µM (inactive); with HOP-62 it was > 100 µM (inactive). In addition, the GI50 with HOP-92, in the test with K562, with LOX IMVI, with MOLT-4, in the test on NCI-H460 and in the test on RXF 393 was > 100 µM (inactive) throughout. For the same molecule, the GI50 in the test on SK-MEL-28, in the test with SK-MEL-2, with U-251, in the test with UACC-257 and with UO-31 was > 100 µM (inactive) throughout.

In the case of `C/C(=N\NS(=O)(=O)c1ccc([N+](=O)[O-])cc1)c1ccc[n+]([O-])n1`, the GI50 was 2.36 µM (inactive) in the test with 786-0; 3.05 µM (inactive) in the test with CCRF-CEM; 6.9 µM (inactive) in the test on EKVX; 5.16 µM in the test on HCT-15; 1.81 µM (inactive) with HL-60; 2.09 µM (inactive) in the test on HOP-62. Moreover, the GI50 was 2.94 µM (inactive) in the test with HOP-92; 3.33 µM (inactive) with K562; 0.912 µM (active) in the test on LOX IMVI; 2.92 µM (inactive) in the test with MOLT-4; 0.776 µM (active) in the test on NCI-H460; 1.34 µM (inactive) with RXF 393. Also, the GI50 in the test with SK-MEL-28 is 3.21 µM (inactive); in the test on SK-MEL-2, 1.92 µM (inactive); with U-251, 1.86 µM (inactive); in the test on UACC-257, 3.8 µM (inactive); with UO-31, 2.64 µM (inactive).

On to `O=C(Cc1ccccc1)c1ccc2[nH]c(=O)oc2c1`, for which the GI50 with 786-0 is 87.3 µM (inactive); in the test on CCRF-CEM it was > 100 µM (inactive); with EKVX it was 12.5 µM (inactive); in the test on HCT-15, 58.9 µM; in the test with HL-60, 50.4 µM (inactive); in the test with HOP-62, 90.6 µM (inactive). For the same molecule, the GI50 in the test on Hs-578T was 1.03 µM (active); with K562, 31 µM (inactive); with LOX IMVI, 52.1 µM (inactive); in the test with MOLT-4 it was 31.6 µM (inactive); with NCI-H460, 38.8 µM (inactive); with PC-3, 41.3 µM (inactive). Further, the GI50 with RXF 393 was 39.6 µM (inactive); in the test with SK-MEL-28, 28.6 µM (inactive); in the test on SK-MEL-2, 32.6 µM (inactive); in the test with U-251 it was 16.8 µM (inactive); in the test with UACC-257, 43.2 µM (inactive).

`CCOC(=O)/N=C(\N)SCc1ccccc1`: the GI50 with 786-0 is > 100 µM (inactive); in the test on CCRF-CEM, 24.7 µM (inactive); with EKVX, > 100 µM (inactive); with HCT-15, > 100 µM; in the test on HL-60 it was 50.9 µM (inactive); with HOP-62, > 100 µM (inactive). Also, the GI50 in the test with HOP-92 is > 100 µM (inactive); with K562, > 100 µM (inactive); in the test with LOX IMVI, 43.9 µM (inactive); in the test on MOLT-4, 26.5 µM (inactive); in the test with NCI-H460, > 100 µM (inactive); with RXF 393, > 100 µM (inactive). Besides, the GI50 with SK-MEL-28 is > 100 µM (inactive); in the test on SK-MEL-2, 44.6 µM (inactive); with U-251, > 100 µM (inactive); in the test with UACC-257, > 100 µM (inactive); in the test on UO-31 it was > 100 µM (inactive).

For `O=C1C(Cl)C(c2ccc(O)cc2)N1n1cnc2ccccc2c1=O` (stereo not drawn), the GI50 is 28.8 µM (inactive) with 786-0; 26.3 µM (inactive) in the test with CCRF-CEM; 29.7 µM (inactive) in the test on EKVX; 27.4 µM with HCT-15; 24.5 µM (inactive) with HL-60; > 100 µM (inactive) in the test with HOP-62. Further, the GI50 was 38.2 µM (inactive) in the test on HOP-92; 31.3 µM (inactive) in the test with K562; 21 µM (inactive) in the test on LOX IMVI; 25.6 µM (inactive) with MOLT-4; 33.1 µM (inactive) in the test with NCI-H460; 19 µM (inactive) in the test with RXF 393. In addition, the GI50 is 26.7 µM (inactive) in the test on SK-MEL-28; 26.9 µM (inactive) with SK-MEL-2; 45.4 µM (inactive) in the test with U-251; 43.6 µM (inactive) in the test on UACC-257; 55.1 µM (inactive) with UO-31.

For the molecule `O=S(=O)(c1ccccc1)C1CN2OC1(S(=O)(=O)c1ccccc1)CC2c1ccc(Br)cc1` (stereo not drawn), the GI50 in the test with 786-0 is 38.1 µM (inactive); in the test on CCRF-CEM, > 100 µM (inactive); with EKVX, > 100 µM (inactive); in the test with HCT-15, > 100 µM; in the test with HL-60, > 100 µM (inactive); in the test on HOP-62 it was 34.3 µM (inactive). Besides, the GI50 was 66.2 µM (inactive) in the test on HOP-92; > 100 µM (inactive) with K562; 92 µM (inactive) in the test with LOX IMVI; > 100 µM (inactive) with MOLT-4; > 100 µM (inactive) in the test on NCI-H460; 13.2 µM (inactive) in the test on RXF 393. For the same molecule, the GI50 with SK-MEL-28 was > 100 µM (inactive); in the test with SK-MEL-2 it was > 100 µM (inactive); with U-251, 54.2 µM (inactive); with UACC-257 it was 68.4 µM (inactive); in the test with UO-31 it was 37.9 µM (inactive).
